This note sets out measurements from US11207312B2, “Metallo-beta-lactamase inhibitors and methods of use thereof” (priority 2017, dated 2021).

Data set [1] deals with Serratia marcescens expressing IMP-1 (CL5741). The format is cell-based. The conditions noted are these: with imipenem 1 μg/ml; 95% inhibition of bacterial growth. The procedure, abridged:
(§1)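 Synergy with imipenem at a fixed 1 μg/ml was scored by absorbance following 22–24 h incubation at 35 °C; the potentiating concentration (MITC95) was the lowest giving 95% growth inhibition.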

The test system of data set [2] is Escherichia coli expressing NDM-1 (CLB30016). The format is cell-based. The conditions noted are these: with imipenem 1 μg/ml; 95% inhibition of bacterial growth. The method, boiled down: as §1
The test system of data set [3] is Klebsiella pneumoniae expressing VIM-1 (IHMA599644). The data set is classed as cell-based. The conditions noted are these: with imipenem 1 μg/ml; 95% inhibition of bacterial growth. The procedure, abridged:
as §1

Data set [4] has as its system P. aeruginosa MB9798 (efflux+, IMP-1 plasmid). The conditions noted are these: for MB9798 MITC95 P. aeruginosa uM Efflux WT: efflux + (MB9798) strain, imipenem at 2 μg/mL, in the presence of a class A, C, D serine β-lactamase inhibitor closely related to relebactam; for Efflux ratio: fold difference between efflux+ (MB9798) and efflux− (MB9799) strains. The method, boiled down: (§2)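 Isogenic P. aeruginosa PAO1 strains (efflux+ and multiple-efflux-pump-disrupted) carrying plasmid IMP-1, with inducible AmpC, tested by broth microdilution. Imipenem and/or ceftazidime fixed, usually at CLSI breakpoint, plus fixed class A/C β-lactamase inhibitor; titrated MBL inhibitor concentration restoring susceptibility recorded and compared between strains as efflux fold difference.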

Another data set concerns the target VIM-2 (Escherichia coli, UniProt Q5U7L7). The data set is described as follows: biochemical. The conditions noted are these: CCF2-FA fluorescence assay; read-out: VIM2 IC50.
A further data set has as its target IMP-1 (Serratia marcescens, UniProt P52699). The data set is described as follows: biochemical. The conditions noted are these: CCF2-FA fluorescence assay, 2 hours at 25° C.; read-out: IMP1 IC50. The procedure, abridged: (§3)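 In 100 mM phosphate pH 7 containing Tween-20 and ZnSO4, NDM-1 (1 pM), IMP-1 (2 pM) or VIM-1 (30 pM) hydrolysed 1.25 μM CCF2-FA over 2 hours at 25° C with inhibitor present. Readout was 405/460 nm fluorescence.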

Another data set deals with VIM-1 (Pseudomonas aeruginosa (strain ATCC 15692 / DSM 22644 / CIP 104116 / JCM 14847 / LMG 12228 / 1C / PRS 101 / PAO1), UniProt A0A0F7KYQ8). The data set is described as follows: biochemical. The conditions noted are these: CCF2-FA fluorescence assay, 2 hours at 25° C.; read-out: VIM1 IC50. The procedure, abridged: as §3
Another data set deals with NDM-1 (Klebsiella pneumoniae, UniProt C7C422). In words: biochemical. The data set is classed as biochemical. The conditions noted are these: CCF2-FA fluorescence assay, 2 hours at 25° C. The method, boiled down: as §3
Data set [5] concerns P. aeruginosa MB9799 (efflux-, IMP-1 plasmid). The format is cell-based, Pseudomonas aeruginosa. The conditions noted are these: efflux − (MB9799) strain; imipenem at 2 μg/mL; in the presence of a class A, C, D serine β-lactamase inhibitor closely related to relebactam. The procedure, abridged: as §2

The IC50 is the concentration that gives 50% inhibition.

Structures are written as SMILES.

Sequence of IMP-1 (P52699 whole entry, looked up, species assumed): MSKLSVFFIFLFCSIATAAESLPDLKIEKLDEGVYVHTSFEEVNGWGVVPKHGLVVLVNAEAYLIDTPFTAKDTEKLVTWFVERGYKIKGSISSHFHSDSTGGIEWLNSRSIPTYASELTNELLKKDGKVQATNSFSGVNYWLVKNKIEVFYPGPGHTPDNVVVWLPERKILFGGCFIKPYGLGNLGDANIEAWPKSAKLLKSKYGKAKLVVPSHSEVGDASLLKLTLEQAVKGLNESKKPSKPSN
Sequence of NDM-1 (C7C422 whole entry, looked up, species assumed): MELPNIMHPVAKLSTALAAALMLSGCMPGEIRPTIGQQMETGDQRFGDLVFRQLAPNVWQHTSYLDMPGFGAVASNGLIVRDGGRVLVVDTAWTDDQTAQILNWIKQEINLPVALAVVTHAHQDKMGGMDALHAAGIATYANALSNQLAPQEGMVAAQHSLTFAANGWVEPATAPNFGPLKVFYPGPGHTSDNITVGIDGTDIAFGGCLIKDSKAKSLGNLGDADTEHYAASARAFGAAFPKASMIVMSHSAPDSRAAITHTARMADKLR

Consider `NCC1CCN(c2ccc(S(=O)(=O)N[C@@H](CN)CO)c(S(N)(=O)=O)c2-c2nn[nH]n2)CC1` [Example 189, (S)-N1-(1-amino-3-hydroxypropan-2-yl)-4-(4-(aminomethyl)piperidin-1-yl)-3-(2H-tetrazol-5-yl)benzene-1,2-disulfonamide], for which, in data set [1], the “CL5741 S. marcescens MITC95 IMP” value stood at 0.78 µM. Further, in [2], the “CLB30016 E. coli MITC95 NDM” value was 0.39 µM. Further, in data set [3], the “IHMA599644 K. pneumoniae MITC95 VIM” value came out at 0.78 µM. Further, the “MB9798 MITC95 P. aeruginosa uM Efflux WT” value in data set [4] is 0.78 µM. The Efflux ratio in data set [4] is 2.00. Also, the IC50 at VIM-2 was 2.31 nM; at IMP-1 it was 0.77 nM; on VIM-1, 0.06 nM; on NDM-1, 0.3 nM. The “MB9799 MITC95 P. aeruginosa uM Efflux Mutant” value in data set [5] was determined as 0.39 µM.
For `NS(=O)(=O)c1c(S(=O)(=O)C2CNC2)ccc(N2CCC[C@H](O)C2)c1-c1nnn[nH]1` [Example 60, 6-(azetidin-3-ylsulfonyl)-3-[(3S)-3-hydroxypiperidin-1-yl]-2-(1H-tetrazol-5-yl)benzenesulfonamide], the “CL5741 S. marcescens MITC95 IMP” value in data set [1] came to 3.13 µM. Besides, the “CLB30016 E. coli MITC95 NDM” value in [2] came out at 3.13 µM. The “IHMA599644 K. pneumoniae MITC95 VIM” value in data set [3] stood at 6.25 µM. Moreover, the “MB9798 MITC95 P. aeruginosa uM Efflux WT” value in data set [4] turned out to be 12.50 µM. Further, the Efflux ratio in [4] was determined as 4.00. In addition, the IC50 was 2.67 nM at VIM-2, 6.05 nM at IMP-1, 1.44 nM on VIM-1 and 4.23 nM against NDM-1. Besides, the “MB9799 MITC95 P. aeruginosa uM Efflux Mutant” value in data set [5] was 3.13 µM.
As for `NCC1CCN(c2ccc(S(=O)(=O)NC[C@@H](O)CN)c(S(N)(=O)=O)c2-c2nnn[nH]2)CC1` [Example 37, (S)-N1-(3-amino-2-hydroxypropyl)-4-(4-(aminomethyl)piperidin-1-yl)-3-(1H-tetrazol-5-yl)benzene-1,2-disulfonamide], in [1], the “CL5741 S. marcescens MITC95 IMP” value is 0.78 µM. Further, the “CLB30016 E. coli MITC95 NDM” value in data set [2] came to 0.39 µM. Besides, the “IHMA599644 K. pneumoniae MITC95 VIM” value in [3] came to 0.78 µM. In addition, in data set [4], the “MB9798 MITC95 P. aeruginosa uM Efflux WT” value came to 0.78 µM. Also, in [4], the Efflux ratio is 1.00. Further, the IC50 was found to be 2.07 nM at VIM-2, 3.04 nM at IMP-1, 0.11 nM on VIM-1 and 1.29 nM on NDM-1. In addition, the “MB9799 MITC95 P. aeruginosa uM Efflux Mutant” value in data set [5] came out at 0.78 µM.
Take `NC[C@@H](O)CNS(=O)(=O)c1ccc(N2CCN(CCO)CC2)c(-c2nnn[nH]2)c1S(N)(=O)=O` [Example 47, (R)-N1-(3-amino-2-hydroxypropyl)-4-(4-(2-hydroxyethyl)piper-azin-1-yl)-3-(1H-tetrazol-5-yl)benzene-1,2-disulfonamide]: the “CL5741 S. marcescens MITC95 IMP” value in data set [1] was 0.10 µM. Further, the “CLB30016 E. coli MITC95 NDM” value in data set [2] was determined as 0.10 µM. In data set [3], the “IHMA599644 K. pneumoniae MITC95 VIM” value was found to be 0.78 µM. Besides, the “MB9798 MITC95 P. aeruginosa uM Efflux WT” value in [4] stood at 1.56 µM. Besides, in data set [4], the Efflux ratio worked out at 2.00. Moreover, the IC50 was determined as 7.34 nM on VIM-2, 4.57 nM on IMP-1, 5.02 nM at VIM-1 and 3.94 nM on NDM-1. Besides, in [5], the “MB9799 MITC95 P. aeruginosa uM Efflux Mutant” value was 0.78 µM.
In the case of `CN(C)C1(C)CN(c2ccc(S(=O)(=O)N[C@@H]3CCNC3)c(S(N)(=O)=O)c2-c2nnn[nH]2)C1` [Example 114, 4-[3-(dimethylamino)-3-methylazetidin-1-yl]-N1-[(3R)-pyrrolidin-3-yl]-3-(1H-tetrazol-5-yl)benzene-1,2-disulfonamide], in data set [1], the “CL5741 S. marcescens MITC95 IMP” value was 3.13 µM. The “CLB30016 E. coli MITC95 NDM” value in data set [2] was determined as 1.56 µM. Also, in data set [3], the “IHMA599644 K. pneumoniae MITC95 VIM” value turned out to be 3.13 µM. Besides, in [4], the “MB9798 MITC95 P. aeruginosa uM Efflux WT” value stood at 12.50 µM. Further, the Efflux ratio in data set [4] was 4.00. Moreover, the IC50 worked out at 4.27 nM on VIM-2, 50.5 nM at IMP-1, 1.24 nM at VIM-1 and 12 nM against NDM-1. For the same compound, the “MB9799 MITC95 P. aeruginosa uM Efflux Mutant” value in [5] was found to be 3.13 µM.
